Measurements from US7354711B2, “Methods for inhibiting immunostimulatory DNA associated responses” (University of Iowa Research Foundation, priority 1997, dated 2008).

System: WEHI 231 cells
Experiment: Inhibition of CpG-ODN 1760 protection against α-sIgM-induced inhibition of [3H] thymidine uptake
Type: cell-based, mouse
Conditions: for Fold: activity expressed as a fraction of activity of chloroquine / Activity: -log10 of the concentration (M) required for half maximal inhibition of CpG-ODN effect on [3H] thymidine uptake in the presence of α-sIgM: Table 2, 4-aminoquinolines; for Activity: -log10 of the concentration (M) required for half maximal inhibition of CpG-ODN effect on [3H] thymidine uptake in the presence of α-sIgM / Activity,-log10 (concentration (M) for half maximal inhibition of CpG-ODN effect on [3H] thymidine uptake in the presence of α-sIgM): WEHI 231 cells; for vs. Chloroquine, fold / Activity,-log10 (concentration (M) for half maximal inhibition of CpG-ODN effect on [3H] thymidine uptake in the presence of α-sIgM): Table 3, 9-aminoacridines
Description: The assay of [^3H] Thymidine incorporation was carried out as follows. WEHI 231 cells (200 μL at 2×10^5/milliliter, in duplicate or triplicate) were incubated in a 96-well plate (Costar, Cambridge Mass.). Additions were made as indicated. After incubating for 16 hours, 0.5 μCi [methyl-^3H] thymidine (2 Ci/millimole, DuPont NEN, Boston Mass.) was added to each well, and the cells were incubated for another 4 hours. Cellular DNA was then captured onto glass fiber filters (Whatman 934AH) using a cell harvester (Brandel, Gaithersberg Md.). The filters were dried, placed into plastic scintillation vials with 10 milliliters of scintillation cocktail (EconoSafe, Research Products International, Mount Prospect Ill.), and counted in a liquid scintillation counter (Beckman LS-3133 T). The ^3H recovered on the filter was expressed as a fraction of the ^3H added.
Referring to experiments summarized in FIG. 1, WEHI 231 cells (ca. 2×10^5 per milliliter) were incubated for 16 hours at 37° C. with 10 μgrams/milliliter α-sIgM, 6 μgrams/milliliter ODN 1760, and the indicated concentration of the compound. After 16 hours, 0.5 μCi [^3H] thymidine was added. After 4 more hours incubation, the cellular DNA was harvested onto glass fiber filters. The dry filters were counted in a liquid scintillation counter.
Each experimental point was the mean of at least duplicate measurements.
Referring to the experiments summarized in FIG. 3, 10 μgrams/milliliter α-sIgM and the indicated concentrations of ODN 1760 and quinacrine were added simultaneously to WEHI 231 cells. Thymidine incorporation was estimated at 16 hours as described for Example 1.
Referring to the experiments summarized in FIG. 4, WEHI 231 cells were incubated with α-sIgM and ODN 1760. At times thereafter 0.1 μM quinacrine was added (data shown in the left three bars). Cells were incubated with 10 μgrams/milliliter (α-sIgM and ODN 1760 (6 μgrams/milliliter, phosphorothioate or a phosphodiester ODN with the same sequence as 1760 (PD ODN) (30 μM at time 0 hours and 8 hours; data represented in right six bars in FIG. 4). [^3H] thymidine incorporation was estimated at 16 hours.
The symbol — indicates no change. Me and Et indicate —CH3 and —CH2CH3 respectively. Aromatic substituents are in the para position except as indicated. The activity is —log10 of the concentration (M) required for half maximal inhibition of CpG-ODN effect on [^3H] thymidine uptake in the presence of α-sIgM.

Row | SMILES | Fold: activity expressed as a fraction of activity of chloroquine [fold] | Activity: -log10 of the concentration (M) required for half maximal inhibition of CpG-ODN effect on [3H] thymidine uptake in the presence of α-sIgM | Inhibition of the CpG-ODN effect (FIG. 1) (at nanomolar concentrations, 10 μg/mL α-sIgM, 6 μg/mL ODN 1760) | vs. Chloroquine, fold [fold] | Activity,-log10 (concentration (M) for half maximal inhibition of CpG-ODN effect on [3H] thymidine uptake in the presence of α-sIgM)
1 | CCN(CC)CCCC(C)Nc1ccnc2cc(OC)ccc12 (stereo not shown) [compound 14] | 0.17 | 6.20 | – | – | –
2 | CCN(CC)CCCC(C)Nc1c(C)cnc2cc(Cl)c(C)cc12 (stereo not shown) [compound 46] | 0.21 | 6.28 | – | – | –
3 | CCN(CC)CCCC(C)Nc1c(C)cnc2cccc(Br)c12 (stereo not shown) [compound 62] | 0.35 | 6.51 | – | – | –
4 | CCN(CC)CCCCNc1c(C)cnc2cc(Cl)ccc12 [compound 35] | 0.81 | 6.87 | – | – | –
5 | CCN(CC)CCCC(C)Nc1c(-c2ccccc2)cnc2cc(Cl)ccc12 (stereo not shown) [compound 12] | 0.69 | 6.80 | – | – | –
6 | CCN(CC)CCCC(C)Nc1ccnc2cc(Br)ccc12 (stereo not shown) [compound 4] | 0.72 | 6.82 | – | – | –
7 | CCN(CCO)CCCC(C)Nc1ccnc2cc(Cl)ccc12 (stereo not shown) [hydroxychloroquine, reference compound] | – | – | completely inhibited | – | –
8 | CCOc1cc2c(NC(C)CCCN(CC)CC)c(C)cnc2cc1Cl (stereo not shown) [compound 71] | 0.09 | 5.90 | – | – | –
9 | CN(C)C(C)(C)CCCNc1ccnc2cc(Cl)ccc12 [compound 68] | 0.81 | 6.87 | – | – | –
10 | CCN(CC)CCCC(C)Nc1ccnc2cccc(Cl)c12 (stereo not shown) [compound 9] | 0.76 | 6.84 | – | – | –
11 | CCN(CC)CCCC(C)Nc1c(C)c(C)nc2ccccc12 (stereo not shown) [compound 39] | 0.04 | 5.58 | – | – | –
12 | CCN(CC)CCCC(C)Nc1cc(-c2ccccc2)nc2cc(OC)ccc12 (stereo not shown) [compound 44] | 3.63 | 7.52 | – | – | –
13 | CN(C)CCCCNc1ccnc2cc(Cl)ccc12 [compound 10] | 0.72 | 6.82 | – | – | –
14 | CCN(CC)CCCC(C)Nc1ccnc2cc(Oc3ccccc3)ccc12 (stereo not shown) [compound 64] | 0.62 | 6.75 | – | – | –
15 | CCN(CC)CCCC(Nc1c2ccc(Cl)cc2nc2ccc(OC)cc12)c1ccc(Cl)cc1 (stereo not shown) [compound 28] | – | – | – | 1.82 | 7.22
16 | CCN(CC)CCCC(C)Nc1c2ccc(Cl)cc2nc2cc(OC)c(OC)cc12 (stereo not shown) [compound 26] | – | – | – | 10.72 | 7.99
17 | CCN(CC)CCCC(Nc1c2ccc(Cl)cc2nc2ccc(OC)cc12)c1cccc2ccccc12 (stereo not shown) [compound 29] | – | – | – | 1.91 | 7.24
18 | CCN(CC)CCC(CNc1ccnc2cc(Cl)ccc12)c1ccccc1 (stereo not shown) [compound 7] | 1.38 | 7.10 | – | – | –
19 | CCN(CC)CCCC(C)Nc1ccnc2cc(Oc3ccccc3)ccc12 (stereo not shown) [compound 50] | 0.74 | 6.83 | – | – | –
